According to patent publication US10758609B2, “Cross-reactive T-cell epitopes of HIV, SIV, and FIV for vaccines in humans and cats” (priority 2015, dated 2020):

Assays:
[1] = test system: CD8^+ T cells from HIV^+ subjects; assay: FACS-based intracellular staining (ICS) for cytolysin (perforin) and cytotoxins (GrzA, GrzB) in CD8+ T cells; details: HIV+ human subjects; for Cyto: CD8+ T-cell cytotoxins (perforin, GrzA & B), frequency of responders: FIV epitope peptide; for Cyto (cytolysin/cytotoxin production), frequency of responders: FIV peptides
How it was run: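 Peptides tested with PBMC and T cells from HIV^+ subjects, some on ART. CFSE proliferation positive at ≥2% CFSE^low CD4^+ or CD8^+ T cells; intracellular perforin, granzyme A and B staining by FACS positive at ≥0.2%.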

PBMC from cat SBA = type: cell-based; details: PBMC of cat SBA, 14 wk post-challenge boost

Sequence	Cyto: CD8+ T-cell cytotoxins (perforin, GrzA & B), frequency of responders [1]	Cyto (cytolysin/cytotoxin production), frequency of responders [1]	GrzA mRNA (PBMC from cat SBA)	GrzB mRNA (PBMC from cat SBA)	IFNγ mRNA (PBMC from cat SBA)	IL2 mRNA (PBMC from cat SBA)	perforin mRNA (PBMC from cat SBA)
KKKSGKWRMLIDFRV [FRT3-3]	++++ (>54% (++++))	++++ (>54% (++++))					
PTDMATLIMAAPGCA [Fp4-3]			low	no detectable levels	high	low	no detectable levels
WRMLIDFRVLNKL [FRT3-4]	++++ (>54% (++++))	++++ (>54% (++++))					
